Test results as given in patent US11001891B2, “Methods for treating Parkinson's disease” (Berg LLC, priority 2016, dated 2021).

What was measured:
Assay type in all cases: cell-based, human
[1] = tested on: SH-SY5Y cells; assay: PIG3 protein, cleaved PARP and cell death in SH-SY5Y cells treated with 6-OHDA; conditions: 6-OHDA 0, 50 and 100 μm, 48 hours
Procedure: This experiment was similar to the experiment described in Example 1, except that the in vitro chemical model of Parkinson's Disease involved treatment of SH-SY5Y cells with oxidopamine, also known as 6-hydroxydopamine (6-OHDA) or 2,4,5-trihydroxyphenethylamine 6-OHDA is known to have a selective adverse effect on dopaminergic and noradrenergic neurons. The structure of 6-OHDA is shown below:
For the experiment, SH-SY5Y cells were treated with 6-OHDA at a concentration of 0, 50 and 100 μm for 48 hours. Following the treatment, the amount of PIG3 protein in the cells and the extent of SH-SY5Y cell death were assessed. Cells treated with etoposide were used as a positive control. Apoptosis in the treated cells was assessed by measuring the amount of cleaved poly(ADP-ribose) polymerase (PARP).

[2] = tested on: PIG3 protein; assay: Time course of PIG3 protein in SH-SY5Y cells after 6-OHDA (immunoblot); conditions: 50 nm 6-OHDA, normalized to actin
Procedure: The purpose of this experiment was to access the effect of overexpression of PIG3 on cell viability and reactive oxygen species (ROS) production. To this end, SH-SY5Y cells stably overexpressing the PIG3 open reading frame (PIG3 ORF) were created and characterized by determining their viability, ROS burden and the amount of PIG3 protein produced in response to treatment with 50 nM 6-OHDA. Cell viability was measured relative to the empty vector control, pLOC (CTRL). ROS burden was estimated using DCFDA fluorescence measured by flow cytometry; and the amount of PIG3 protein was measured by immunoblotting and normalizing the densitometry of immunoreactivity to the amount of actin as a loading control.

[3] = tested on: patient-specific induced pluripotent stem cells (iPSCs); conditions: rotenone 0-1,000 nm or 6-OHDA 0.5-10 μM, 48 hours
Procedure: (§1) For the experiment, patient-specific iPSCs were prepared by reprogramming primary dermal fibroblasts harvested from the upper arm of PD+ and unaffected donors using a non-integrating, self-replicating polycistronic RNA construct containing the reprogramming factors OCT4, SOX2, KLF4 and GLIS1 (Millipore, Simplicon™) according to published protocols. […] Following the treatment, the amount of PIG3 protein in the cells and cell viability were assessed.

[4] = tested on: PIG3; assay: PIG3 expression in patient-specific iPSCs after neurotoxin treatment; conditions: rotenone 0-1,000 nm or 6-OHDA 0.5-10 μM, 48 hours
Procedure: as §1

[5] = tested on: LRRK2-PD neurons; conditions: iPSC-derived LRRK2-PD neurons, increasing concentrations of neurotoxin
Procedure: IPSCs were prepared from LRRK2-PD fibroblasts and then differentiated towards excitatory cortical neurons as described in the above examples and following published protocols (e.g., Shi et al., Nat. Neurosci. 2012, 15(3):10.1038; Chamber et al. Nat. Biotechnology, 2009, 27:275-280, the entire contents of which are incorporated herein by reference).

[6] = tested on: SH-SY5Y cells; assay: Cell death in SH-SY5Y cells treated with rotenone or 6-OHDA (in vitro chemical model of Parkinson's Disease); conditions: 48 hours rotenone or 6-OHDA in the presence vs absence of inhibitor
Source text: The purpose of this experiment was to test the effect of inhibiting the expression of PIG3 in an in vitro chemical model of Parkinson's Disease. For this experiment, an siRNA capable of inhibiting the expression of PIG3 (PIG3 siRNA) was synthesized and tested in SH-SY5Y cells against a non-targeting […] (NTC).
(§2) The purpose of this experiment was to test the effect of inhibiting the p38 MAPK activity on cell death and the expression of PIG3 in in vitro chemical model of Parkinson's Disease. […] SH-SY5Y cell death and PIG3 mRNA expression were assessed following treatment.
(§3) The purpose of this experiment was to test the effect of inhibiting LRRK2 activity on cell death and the expression of PIG3 in in vitro chemical model of Parkinson's Disease. […] SH-SY5Y cell death and PIG3 mRNA expression were assessed following treatment.

[7] = tested on: PIG3 mRNA; assay: PIG3 mRNA expression in SH-SY5Y cells treated with rotenone or 6-OHDA in presence of kinase inhibitor; conditions: 48 hours rotenone or 6-OHDA in the presence vs absence of inhibitor
Procedure: as §2, §3

[8] = tested on: SH-SY5Y cells; assay: PIG3 protein, cleaved PARP and cell death in SH-SY5Y cells treated with rotenone; conditions: rotenone 0, 50, 100 and 500 nm, 48 hours, immunoblot
Procedure: The purpose of this experiment was to evaluate the expression of PIG3 and cell viability in an in vitro chemical model of Parkinson's Disease.
Following the treatment, the amount of PIG3 protein in the cells and the extent of SH-SY5Y cell death were assessed. Cells treated with etoposide, which is known to induce apoptosis, were used as a positive control. Apoptosis in the treated cells was assessed by measuring the amount of cleaved poly(ADP-ribose) polymerase

Structure (SMILES): NCCc1cc(O)c(O)cc1O [6-OHDA, 2,4,5-trihydroxyphenethylamine]
- apoptosis (cleaved PARP) / cell death [1]: 6-OHDA-induced apoptosis
- amount of PIG3 protein ([1]; immunoblot): increased as a function of increasing concentration of 6-OHDA
- relative amounts of PIG3 protein at different times after treatment [2]: time-dependent accumulation of PIG3 protein
- iPSC viability [3]: decreased viability
- PIG3 expression [4]: increased PIG3 expression
- PIG3 protein [5]: further increases
- cleaved PARP expression [5]: further increases

Structure (SMILES): COc1cc(C(=O)N2CCC(N3CCN(C)CC3)CC2)ccc1Nc1ncc2c(n1)N(C)c1ccccc1C(=O)N2C [LRRK2-IN-1]
- cell death [6]: decreased cell death
- PIG3 mRNA expression [7]: decreased PIG3 mRNA expression

Structure (SMILES): C[S+]([O-])c1ccc(-c2nc(-c3ccncc3)c(-c3ccc(F)cc3)[nH]2)cc1 (centres unmarked) [SB203580]
- cell death [6]: decreased cell death
- PIG3 mRNA expression [7]: decreased PIG3 mRNA expression

Structure (SMILES): C=C(C)[C@H]1Cc2c(ccc3c2O[C@@H]2COc4cc(OC)c(OC)cc4[C@@H]2C3=O)O1 [rotenone]
- amount of PIG3 protein [8]: increased as a function of increasing concentration of rotenone
- PIG3 expression [4]: increased PIG3 expression
- PIG3 protein [5]: further increases
